Results from ChEMBL document CHEMBL1201862, “PubChem BioAssay data set” (2004).
Values joined by “and” are separate entries in the source; they are usually repeats but may differ in a detail not shown here. Identical values can stand only once. Active and inactive are the calls of the source.

Tests used:
[1] = P. falciparum late gametocyte killing, dose response, luminescence (AID 1117278); type: functional, cell-based;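 also: gametocytes exposed to compound for 24 hours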
[2] = Jurkat T cell cytotoxicity, dose response, cytotoxicity control for P. falciparum gametocyte viability project, luminescence (AID 1117277); type: functional, cell-based;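 also: potency reflects loss of cellular ATP meaning fewer viable cells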
[3] = molecular target: T1, Sphingosine 1-phosphate receptor 2 (Homo sapiens, UniProt O95136); experiment: Dose Response Cell Based Assay for Antagonists of the S1P2 Receptor. [Related pubchem assays: 856, 736 ]; type: functional
[4] = molecular target: E3 ubiquitin-protein ligase UHRF1 (Homo sapiens, UniProt Q96T88); experiment: Counterscreen for inhibitors of 5-meCpG-binding domain protein 2 (MBD2): TRFRET-based biochemical high throughput dose response assay to identify inhibitors of binding of ubiquitin-like with PHD and ring finger domains 1 (UHRF1) to methylated oligonucleotide.
SUMO-activating enzyme [5] = molecular target: T2, SUMO-activating enzyme (Homo sapiens, UniProt Q9UBT2); experiment: SUMOylation inhibitor hit validation, confirmation, SUMOylation inhibitor project, biochemical, AlphaScreen (AID 2018); type: functional
Aminopeptidase N = molecular target: T3, Aminopeptidase N (Plasmodium falciparum FcB1/Columbia, UniProt O96935); experiment: P. falciparum M1AAP inhibitors, biochemical, fluorogenic H-Leu-NHMec substrate, 1536-well (AID 1445); design: species or system Plasmodium falciparum 3D7, 3D7
T3 sequence (O96935 whole entry): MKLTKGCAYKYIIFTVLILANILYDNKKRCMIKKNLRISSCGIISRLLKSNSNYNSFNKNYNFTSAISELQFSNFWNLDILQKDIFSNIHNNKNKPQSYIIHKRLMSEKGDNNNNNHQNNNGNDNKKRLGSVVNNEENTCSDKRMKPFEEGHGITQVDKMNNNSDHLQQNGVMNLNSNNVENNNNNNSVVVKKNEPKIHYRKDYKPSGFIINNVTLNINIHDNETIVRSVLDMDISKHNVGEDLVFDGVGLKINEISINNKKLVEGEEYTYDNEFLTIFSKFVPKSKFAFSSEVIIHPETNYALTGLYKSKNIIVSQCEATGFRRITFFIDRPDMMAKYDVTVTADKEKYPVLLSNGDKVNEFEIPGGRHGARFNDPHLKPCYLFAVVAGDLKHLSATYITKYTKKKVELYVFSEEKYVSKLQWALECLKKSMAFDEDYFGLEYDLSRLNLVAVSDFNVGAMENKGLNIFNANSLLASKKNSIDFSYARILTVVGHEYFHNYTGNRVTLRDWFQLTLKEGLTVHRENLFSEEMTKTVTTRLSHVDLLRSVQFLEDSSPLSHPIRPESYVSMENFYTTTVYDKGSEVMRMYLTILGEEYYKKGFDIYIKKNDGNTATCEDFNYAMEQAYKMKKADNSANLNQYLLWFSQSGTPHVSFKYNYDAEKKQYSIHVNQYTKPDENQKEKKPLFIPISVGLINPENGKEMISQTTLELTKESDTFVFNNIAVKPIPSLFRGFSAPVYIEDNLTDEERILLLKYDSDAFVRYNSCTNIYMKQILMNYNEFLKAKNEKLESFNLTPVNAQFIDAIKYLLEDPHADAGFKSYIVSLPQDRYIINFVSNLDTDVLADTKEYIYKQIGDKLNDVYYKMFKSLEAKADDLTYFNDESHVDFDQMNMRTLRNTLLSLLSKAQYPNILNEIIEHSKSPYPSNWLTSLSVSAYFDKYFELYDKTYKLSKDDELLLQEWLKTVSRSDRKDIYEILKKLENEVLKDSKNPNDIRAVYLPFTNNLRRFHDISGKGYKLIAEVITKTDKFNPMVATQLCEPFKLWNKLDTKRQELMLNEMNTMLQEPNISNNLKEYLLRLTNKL

SUMO-activating enzyme [6] = molecular target: T2, SUMO-activating enzyme; experiment: inhibitors of in vitro SUMOylation cascade, primary screen, biochemical, HTRF, uHTS (AID 2006); type: protein-complex assay
[7] = Luminescence Cell-Based Dose Confirmation HTS to Identify Activators of 5'UTR Stem-Loop Driven Alpha-Synuclein mRNA Translation in H4 Neuroglioblastoma Cells. [Related pubchem assays: 1829 (Project Summary), 1814 (Primary HTS)]; type: functional
NADPH oxidase 1 = NADPH oxidase 1 (Homo sapiens, UniProt Q9Y5S8); experiment: Late-stage luminescence-based cell-based dose response assay to identify inhibitors of NADPH oxidase 1 (NOX1): Synthesized analogs.; type: functional
H4 = experiment: Luminescence Cell-Based Dose Response HTS to Identify Activators of 5'UTR Stem-Loop Driven Prion Protein mRNA Translation in H4 Neuroglioblastoma Cells. [Related pubchem assays: 1829 (Project Summary), 1814 (Primary HTS)]; type: functional; conditions: Homo sapiens
[8] = Luminescence Cell-Based Dose Response HTS to Identify Activators of Luciferase Translation or Activity in H4 […] Cells. [Related pubchem assays: 1829 (Project Summary), 1814 (Primary HTS)]; type: functional
[9] = molecular target: Diphosphomevalonate decarboxylase (Streptococcus pneumoniae serotype 2 (strain D39 / NCTC 7466), UniProt Q9FD53); experiment: S. pneumoniae DPM-DC inhibition retest, confirmation, biochemical, cuvette format, coupled NADH fluorescence (AID 1028); type: functional
[10] = molecular target: RNA-editing ligase 1, mitochondrial (Trypanosoma brucei brucei, UniProt P86926); experiment: TbREL1 ligase inhibitors, dose response, biochemical, fluorescence, Trypanosoma brucei (AID 1117295); type: functional
[11] = Artemis endonuclease inhibitor potency, dose response, biochemical, fluorescence intensity (AID 720701); type: functional;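 also: Artemis endonuclease enzyme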
[12] = molecular target: Glutathione-S-transferase (Schistosoma japonicum, UniProt Q26513); experiment: biotin-GST/anti-GST TR-FRET signal inhibitors, dose response, artefact control for Vif-APOBEC3G degradation inhibitor project, biochemical (AID 1117362); type: functional
[13] = molecular target: T1, Sphingosine 1-phosphate receptor 2; experiment: Dose Response Cell Based Assay for Agonists of the S1P2 Receptor. [Related pubchem assays: 729, 736, 843 ]; type: functional
cells [14] = experiment: cells
cells [15] = conditions: HEK293
[16] = HepG2 cell cytotoxicity, dose response, cytotoxicity control, ATP luminescence, cherry-pick, set 6 (AID 1053125); type: functional, cell-based
cells [17] = conditions: A549
[18] = HIV Env cell-cell fusion inhibitors, dose response, HIV entry, plate reader, dry powder (AID 687023); type: functional, cell-based
[19] = CEM21 cell cytotoxicity, dose response, cytotoxicity control, plate reader, dry powder (AID 687026); type: functional, cell-based

T1 sequence (O95136 whole entry, the tested form may be a part): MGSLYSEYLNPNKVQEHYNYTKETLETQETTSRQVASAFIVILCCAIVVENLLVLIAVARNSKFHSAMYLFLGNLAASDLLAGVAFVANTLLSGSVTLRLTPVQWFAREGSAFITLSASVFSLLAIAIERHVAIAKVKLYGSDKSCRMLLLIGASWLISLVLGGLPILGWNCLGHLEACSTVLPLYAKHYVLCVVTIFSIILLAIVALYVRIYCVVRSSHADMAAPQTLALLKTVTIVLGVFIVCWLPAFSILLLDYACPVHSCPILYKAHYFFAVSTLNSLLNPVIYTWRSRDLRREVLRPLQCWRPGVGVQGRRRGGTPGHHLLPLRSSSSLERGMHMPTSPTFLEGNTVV
T2 sequence (Q9UBE0 whole entry): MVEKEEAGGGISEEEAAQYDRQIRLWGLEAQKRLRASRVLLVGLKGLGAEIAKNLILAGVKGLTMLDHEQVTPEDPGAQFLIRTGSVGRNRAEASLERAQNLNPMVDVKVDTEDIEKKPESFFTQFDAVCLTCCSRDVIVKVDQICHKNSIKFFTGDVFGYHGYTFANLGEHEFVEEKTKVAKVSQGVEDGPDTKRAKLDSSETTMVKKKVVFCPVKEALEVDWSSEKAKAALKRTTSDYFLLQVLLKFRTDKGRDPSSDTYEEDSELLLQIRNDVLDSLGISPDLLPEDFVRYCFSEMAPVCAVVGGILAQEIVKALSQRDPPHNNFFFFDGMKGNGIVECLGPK
T2 sequence (Q9UBT2 whole entry): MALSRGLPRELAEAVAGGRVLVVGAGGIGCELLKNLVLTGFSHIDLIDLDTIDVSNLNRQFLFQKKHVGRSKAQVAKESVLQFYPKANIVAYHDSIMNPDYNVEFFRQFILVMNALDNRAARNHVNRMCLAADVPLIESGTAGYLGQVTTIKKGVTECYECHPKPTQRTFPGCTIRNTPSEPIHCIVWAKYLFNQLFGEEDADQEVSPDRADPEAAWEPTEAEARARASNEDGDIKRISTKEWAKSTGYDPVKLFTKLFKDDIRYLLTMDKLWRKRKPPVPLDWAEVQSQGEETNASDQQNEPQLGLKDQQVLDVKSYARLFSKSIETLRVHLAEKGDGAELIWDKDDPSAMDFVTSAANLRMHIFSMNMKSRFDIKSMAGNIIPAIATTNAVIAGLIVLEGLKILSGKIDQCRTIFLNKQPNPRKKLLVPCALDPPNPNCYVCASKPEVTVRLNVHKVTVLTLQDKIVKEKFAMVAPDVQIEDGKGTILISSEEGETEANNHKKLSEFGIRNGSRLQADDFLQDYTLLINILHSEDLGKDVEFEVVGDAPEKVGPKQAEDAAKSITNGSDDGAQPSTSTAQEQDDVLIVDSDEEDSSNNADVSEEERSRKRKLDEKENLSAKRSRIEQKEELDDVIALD
Sequence of RNA-editing ligase 1, mitochondrial (P86926 whole entry): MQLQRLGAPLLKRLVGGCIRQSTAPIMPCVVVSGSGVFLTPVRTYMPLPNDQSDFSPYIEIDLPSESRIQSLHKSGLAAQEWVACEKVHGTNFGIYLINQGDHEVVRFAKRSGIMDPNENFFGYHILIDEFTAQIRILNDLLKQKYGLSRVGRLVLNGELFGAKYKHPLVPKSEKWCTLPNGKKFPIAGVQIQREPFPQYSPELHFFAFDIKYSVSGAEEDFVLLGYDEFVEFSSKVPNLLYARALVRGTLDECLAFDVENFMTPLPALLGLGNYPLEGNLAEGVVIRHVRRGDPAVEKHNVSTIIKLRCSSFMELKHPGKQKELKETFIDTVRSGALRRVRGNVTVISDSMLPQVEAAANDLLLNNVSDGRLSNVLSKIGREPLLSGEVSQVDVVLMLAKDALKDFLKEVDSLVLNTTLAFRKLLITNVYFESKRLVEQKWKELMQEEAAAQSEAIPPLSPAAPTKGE
Sequence of E3 ubiquitin-protein ligase UHRF1 (Q96T88 whole entry, the tested form may be a part): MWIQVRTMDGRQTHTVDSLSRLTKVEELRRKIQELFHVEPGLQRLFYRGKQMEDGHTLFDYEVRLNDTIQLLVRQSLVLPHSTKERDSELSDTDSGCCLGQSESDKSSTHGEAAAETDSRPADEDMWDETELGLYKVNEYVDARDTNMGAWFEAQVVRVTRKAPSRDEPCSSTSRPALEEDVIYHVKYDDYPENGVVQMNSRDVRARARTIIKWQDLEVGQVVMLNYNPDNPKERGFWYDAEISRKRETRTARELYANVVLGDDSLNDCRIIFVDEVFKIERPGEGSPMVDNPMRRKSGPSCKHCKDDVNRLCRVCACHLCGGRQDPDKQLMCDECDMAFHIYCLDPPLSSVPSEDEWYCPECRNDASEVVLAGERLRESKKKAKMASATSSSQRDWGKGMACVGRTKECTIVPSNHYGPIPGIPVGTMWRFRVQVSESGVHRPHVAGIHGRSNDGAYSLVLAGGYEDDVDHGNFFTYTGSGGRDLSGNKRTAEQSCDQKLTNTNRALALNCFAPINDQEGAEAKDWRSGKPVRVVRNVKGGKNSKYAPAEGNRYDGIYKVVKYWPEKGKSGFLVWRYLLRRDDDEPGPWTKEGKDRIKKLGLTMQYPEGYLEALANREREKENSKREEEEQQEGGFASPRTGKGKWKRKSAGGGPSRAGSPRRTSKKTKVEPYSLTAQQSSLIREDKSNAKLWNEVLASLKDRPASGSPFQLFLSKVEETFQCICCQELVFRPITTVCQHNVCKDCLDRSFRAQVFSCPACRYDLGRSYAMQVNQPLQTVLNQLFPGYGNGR
Sequence of Diphosphomevalonate decarboxylase (Q9FD53 whole entry): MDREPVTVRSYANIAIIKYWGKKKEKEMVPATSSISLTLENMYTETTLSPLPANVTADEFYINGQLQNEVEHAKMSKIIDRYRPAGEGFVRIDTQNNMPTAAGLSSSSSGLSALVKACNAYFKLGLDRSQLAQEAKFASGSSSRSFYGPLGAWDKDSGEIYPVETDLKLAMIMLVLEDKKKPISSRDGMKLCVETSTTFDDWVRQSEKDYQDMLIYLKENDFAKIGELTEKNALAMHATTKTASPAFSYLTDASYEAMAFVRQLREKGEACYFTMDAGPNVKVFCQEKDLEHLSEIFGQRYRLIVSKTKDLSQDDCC
Sequence of Glutathione-S-transferase (Q26513 whole entry): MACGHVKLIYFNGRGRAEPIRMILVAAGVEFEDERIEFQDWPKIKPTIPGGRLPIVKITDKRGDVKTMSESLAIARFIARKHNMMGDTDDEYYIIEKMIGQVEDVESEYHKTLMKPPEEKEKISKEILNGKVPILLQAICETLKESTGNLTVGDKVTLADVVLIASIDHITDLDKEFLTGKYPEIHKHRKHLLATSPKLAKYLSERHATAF
Sequence of NADPH oxidase 1 (Q9Y5S8 whole entry): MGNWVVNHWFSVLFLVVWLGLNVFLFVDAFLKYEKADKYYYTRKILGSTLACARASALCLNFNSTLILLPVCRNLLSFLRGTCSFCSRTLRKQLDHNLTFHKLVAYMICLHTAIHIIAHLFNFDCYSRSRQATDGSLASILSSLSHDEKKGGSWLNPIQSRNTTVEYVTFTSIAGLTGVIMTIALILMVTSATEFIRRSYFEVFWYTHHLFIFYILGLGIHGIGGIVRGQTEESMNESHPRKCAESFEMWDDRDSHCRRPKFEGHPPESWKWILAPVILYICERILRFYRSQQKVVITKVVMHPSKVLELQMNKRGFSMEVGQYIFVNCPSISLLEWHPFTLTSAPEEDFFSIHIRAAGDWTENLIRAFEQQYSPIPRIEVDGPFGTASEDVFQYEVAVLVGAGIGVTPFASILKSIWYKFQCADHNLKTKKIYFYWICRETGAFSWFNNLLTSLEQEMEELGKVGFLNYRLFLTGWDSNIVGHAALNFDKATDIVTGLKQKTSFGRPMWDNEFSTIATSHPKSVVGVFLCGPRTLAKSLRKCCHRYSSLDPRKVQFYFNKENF

Compound: Cc1ccccc1-c1nc(CN2CCCC(C(=O)NCCCN3CCOCC3)C2)c(C)o1 (configuration not stated)
- IC50 [1]: > 109 µM (inactive)
- IC50 [2]: > 83.3 µM (inactive)

Compound: O=C(O)c1sc2cc(C(F)(F)F)cnc2c1-c1ccccn1
- IC50 [3]: > 30 µM (not active)

Compound: CCCN(C(=O)c1cc2c(s1)CCC2)c1c(N)n(Cc2ccccc2)c(=O)[nH]c1=O
- IC50 [4]: > 43.8 µM (inactive)
- IC50 (SUMO-activating enzyme [5]): 16.7 µM (active)
- IC50 (Aminopeptidase N): 77.2 µM (active)
- IC50 (SUMO-activating enzyme [6]): 37.7 µM (active)

Compound: c1ccc2c(c1)Nc1cc3ccccc3cc1S2
- EC50 [7]: 98.5 µM (active)
- IC50 (NADPH oxidase 1): 7.58 µM (active)
- EC50 (H4): 5.77 µM (active)
- EC50 [8]: 6.01 µM (active)

Compound: O=C(c1ccc(-n2sc3ccccc3c2=O)cc1)N1CCOCC1
- IC50 [9]: 13.1 µM (active)

Compound: CC(C)c1c(Cl)c(O)c(-c2ccccc2)c(=O)n1-c1ccc(F)cc1
- IC50 [10]: 61.6 µM (inactive)

Compound: Cc1ccc(C(=O)N/C(=C\c2ccc(-c3cc(Cl)ccc3Cl)o2)C(=O)NCc2cccnc2)cc1
- IC50 [11]: > 20 µM (inactive)

Compound: CC1CCCCN1Cc1ccc(N(C)C)cc1 (configuration not stated)
- IC50 [12]: > 100 µM (active)

Compound: O=c1c(-c2nc3ccccc3s2)cccn1Cc1ccc(Cl)c(Cl)c1
- EC50 [13]: 2.18 µM (active)

Compound: N=c1oc2cc(O)ccc2cc1C(=O)Nc1ccc(Cl)cc1
- AC50 (cells [14]): 1.95 µM (active)
- AC50 (cells [15]): > 52 µM (inactive)
- AC50 [16]: > 52 µM (inactive)
- AC50 (cells [17]): > 52 µM (inactive)

Compound: Clc1ccc2c(c1)C(C1=NCCN1)c1ccccc1CS2 (configuration not stated)
- AC50 [18]: 42.5 µM (active) and 54 µM (active)
- AC50 [19]: > 70 µM (inactive)
